Series [1] concerns the target T1, Melanocortin receptor 3 (Homo sapiens, UniProt P41968). Put plainly: Activity at human MC3 receptor expressed in HEK293 cells assessed as cAMP accumulation by luminescence counter. It is filed as functional, cell-based.
For series [2], the target named is T2, Melanocortin receptor 4 (Homo sapiens, UniProt P32245). Put plainly: Displacement of [125I]-NDP-alpha-MSH from human MC4 receptor expressed in HEK293 cells by gamma counting analysis. It is filed as cell-based.
T2 sequence (P32245 whole entry): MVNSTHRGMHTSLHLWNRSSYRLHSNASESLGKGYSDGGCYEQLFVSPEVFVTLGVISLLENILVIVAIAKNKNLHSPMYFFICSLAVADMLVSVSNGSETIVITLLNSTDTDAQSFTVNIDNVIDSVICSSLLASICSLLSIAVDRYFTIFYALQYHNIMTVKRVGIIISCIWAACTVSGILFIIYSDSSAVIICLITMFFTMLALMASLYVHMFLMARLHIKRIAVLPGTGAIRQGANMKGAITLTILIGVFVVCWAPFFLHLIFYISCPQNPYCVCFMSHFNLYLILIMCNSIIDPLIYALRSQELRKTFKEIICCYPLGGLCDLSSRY
Series [3] deals with T3, Melanocortin receptor 5 (Homo sapiens, UniProt P33032). Put plainly: Displacement of [125I]-NDP-alpha-MSH from human MC5 receptor expressed in HEK293 cells by gamma counting analysis. Format: cell-based. (Loss of bound radioactivity is the signal in a displacement assay; it reports binding, not function.)
T3 sequence (P33032 whole entry): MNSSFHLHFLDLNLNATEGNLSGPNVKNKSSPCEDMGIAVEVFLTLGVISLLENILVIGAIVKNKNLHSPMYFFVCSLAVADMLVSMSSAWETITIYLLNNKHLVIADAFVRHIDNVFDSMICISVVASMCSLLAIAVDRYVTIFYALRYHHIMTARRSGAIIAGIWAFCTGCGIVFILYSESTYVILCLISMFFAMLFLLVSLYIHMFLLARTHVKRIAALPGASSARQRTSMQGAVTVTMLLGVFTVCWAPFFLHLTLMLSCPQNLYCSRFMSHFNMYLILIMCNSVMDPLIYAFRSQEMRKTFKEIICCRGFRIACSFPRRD
The target of series [4] is T2, Melanocortin receptor 4. Description: Agonist activity at human MC4 receptor expressed in HEK293 cells assessed as cAMP accumulation at 10 uM by luminescence counter relative to MT-II. It is filed as functional, cell-based.
Series [5] addresses T4, Melanocyte-stimulating hormone receptor (Homo sapiens, UniProt Q01726). Put plainly: Activity at human MC1 receptor expressed in HEK293 cells assessed as cAMP accumulation by luminescence counter. Format: functional, cell-based. (In general: cAMP levels reflect the balance of adenylyl cyclase and phosphodiesterase activity.)
Target sequence in this assay (Q01726 whole entry): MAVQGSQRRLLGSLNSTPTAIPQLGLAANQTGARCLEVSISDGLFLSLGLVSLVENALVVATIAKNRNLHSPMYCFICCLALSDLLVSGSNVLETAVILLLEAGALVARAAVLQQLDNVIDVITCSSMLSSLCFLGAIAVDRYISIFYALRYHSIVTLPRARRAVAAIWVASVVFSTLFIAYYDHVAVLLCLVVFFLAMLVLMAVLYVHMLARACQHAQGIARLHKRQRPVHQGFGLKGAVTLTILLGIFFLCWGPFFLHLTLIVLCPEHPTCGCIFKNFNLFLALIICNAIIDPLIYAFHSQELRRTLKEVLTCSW
The target in series [6] is T3, Melanocortin receptor 5. Description: Antagonist activity at human MC5 receptor expressed in HEK293 cells assessed as cAMP accumulation by luminescence counter. It is filed as functional, cell-based.
The target of series [7] is T2, Melanocortin receptor 4. Put plainly: Displacement of [125I]-NDP-alpha-MSH from human MC4 receptor expressed in HEK293 cells at 10 uM by gamma counting analysis. It is filed as cell-based.
For series [8], the target named is T3, Melanocortin receptor 5. Description: Antagonist activity at human MC5 receptor expressed in HEK293 cells assessed as cAMP accumulation at 10 uM by luminescence counter relative to MT-II. Format: functional, cell-based. Set-up: scale not given: the % may be the effect or the level left.
Series [9] has as its target T4, Melanocyte-stimulating hormone receptor. Put plainly: Displacement of [125I]-NDP-alpha-MSH from human MC1 receptor expressed in HEK293 cells at 10 uM by gamma counting analysis. Format: cell-based.
Target sequence in this assay (Q01726 whole entry, looked up): as the sequence (Q01726 whole entry) above
Series [10] has the same target. Put plainly: Activity at human MC1 receptor expressed in HEK293 cells assessed as cAMP accumulation at 10 uM by luminescence counter relative to MT-II. Format: functional, cell-based.
Target sequence in this assay (Q01726 whole entry, looked up): as the sequence (Q01726 whole entry) above
A short description of series [11]: Retention time of the compound. It is filed as physicochemical.
The target in series [12] is T1, Melanocortin receptor 3. Description: Displacement of [125I]-NDP-alpha-MSH from human MC3 receptor expressed in HEK293 cells by gamma counting analysis. Format: cell-based.
The target of series [13] is T2, Melanocortin receptor 4. Put plainly: Agonist activity at human MC4 receptor expressed in HEK293 cells assessed as cAMP accumulation by luminescence counter. Format: functional, cell-based.
Series [14] concerns the target T4, Melanocyte-stimulating hormone receptor. Description: Displacement of [125I]-NDP-alpha-MSH from human MC1 receptor expressed in HEK293 cells by gamma counting analysis. It is filed as cell-based.
Target sequence in this assay (Q01726 whole entry): as above
Series [15] deals with T3, Melanocortin receptor 5. Put plainly: Displacement of [125I]-NDP-alpha-MSH from human MC5 receptor expressed in HEK293 cells at 10 uM by gamma counting analysis. It is filed as cell-based.
The target of series [16] is T1, Melanocortin receptor 3. Description: Displacement of [125I]-NDP-alpha-MSH from human MC3 receptor expressed in HEK293 cells at 10 uM by gamma counting analysis. It is filed as cell-based.
For series [17], the target named is T1, Melanocortin receptor 3. Put plainly: Activity at human MC3 receptor expressed in HEK293 cells assessed as cAMP accumulation at 10 uM by luminescence counter relative to MT-II. Format: functional, cell-based.

Molecules are shown by their SMILES. Where only a bound is given, the exact number is not on record here.

The record followed here is ChEMBL document CHEMBL3421530, “Azepinone-Containing Tetrapeptide Analogues of Melanotropin Lead to Selective hMC4R Agonists and hMC5R Antagonist” (ACS Med Chem Lett, 2015).

A word on the EC50: it is the concentration at which the effect is half-maximal. By IC50 is commonly meant the point on the concentration scale where inhibition reaches its midpoint.

T1 sequence (P41968 whole entry): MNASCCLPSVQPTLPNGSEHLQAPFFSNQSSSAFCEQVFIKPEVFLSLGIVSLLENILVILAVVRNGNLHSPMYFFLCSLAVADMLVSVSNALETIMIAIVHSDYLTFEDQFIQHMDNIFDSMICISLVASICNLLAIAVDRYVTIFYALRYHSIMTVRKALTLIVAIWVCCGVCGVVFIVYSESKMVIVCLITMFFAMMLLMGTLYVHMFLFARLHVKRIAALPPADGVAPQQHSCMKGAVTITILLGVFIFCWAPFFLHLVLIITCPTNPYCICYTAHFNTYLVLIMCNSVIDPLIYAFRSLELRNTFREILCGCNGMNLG

In the case of `CC(=O)N[C@H]1Cc2c([nH]c3ccccc23)CN([C@H](Cc2ccc(Br)cc2)C(=O)N[C@@H](CCCNC(=N)N)C(=O)N[C@@H](Cc2c[nH]c3ccccc23)C(N)=O)C1=O`, the EC50 at Melanocortin receptor 3 [1] (read-out: EC50) was 2440 nM; in series [5] (read-out: EC50) it was 700 nM; at Melanocortin receptor 5 [6] (hek293) it was “Not Active”; at Melanocortin receptor 4 [13] it was 0.3 nM. Moreover, the IC50 at Melanocortin receptor 4 [2] is 200 nM; at Melanocortin receptor 5 [3], 70.3 nM; on Melanocortin receptor 3 [12] (read-out: IC50), 100 nM; in series [14], 300 nM. The Activity on Melanocortin receptor 4 [4] amounted to 80%; at Melanocortin receptor 5 [8], 0%; in series [10], 100%; at Melanocortin receptor 3 [17], 50%. Further, the %max at Melanocortin receptor 4 [7] worked out at 100%; in series [9], 80%; on Melanocortin receptor 5 [15] it was 100%; at Melanocortin receptor 3 [16] it was 100%. The same compound registered a Retention_time in series [11] of 14.85 min.

As for `CC(=O)N[C@H]1Cc2c([nH]c3ccccc23)CN([C@H](Cc2ccc(F)cc2)C(=O)N[C@@H](CCCNC(=N)N)C(=O)N[C@@H](Cc2c[nH]c3ccccc23)C(N)=O)C1=O`, the EC50 entry was “Not Active” on Melanocortin receptor 3 [1] (hek293), 226 nM in series [5] (read-out: EC50), 4110 nM on Melanocortin receptor 5 [6] (read-out: EC50) and 13 nM on Melanocortin receptor 4 [13]. Also, the concentration for half-maximal inhibition (IC50) on Melanocortin receptor 4 [2] worked out at 6.5 nM; at Melanocortin receptor 5 [3] it was 167 nM; on Melanocortin receptor 3 [12] (read-out: IC50), 5000 nM; in series [14], 258 nM. In addition, the Activity at Melanocortin receptor 4 [4] is 100%; at Melanocortin receptor 5 [8], 50%; in [10], 50%; on Melanocortin receptor 3 [17], 0%. For the same compound, the %max on Melanocortin receptor 4 [7] came to 80%; in series [9], 40%; at Melanocortin receptor 5 [15], 80%; on Melanocortin receptor 3 [16], 50%. In series [11], this compound registered a Retention_time of 13.94 min.

Turning to `CC(=O)N[C@H]1Cn2nncc2CN([C@H](Cc2ccccc2)C(=O)N[C@@H](CCCNC(=N)N)C(=O)N[C@@H](Cc2c[nH]c3ccccc23)C(N)=O)C1=O`, the EC50 was 55 nM at Melanocortin receptor 3 [1] (read-out: EC50), 750 nM in [5] (read-out: EC50), “Not Active” on Melanocortin receptor 5 [6] (hek293) and 203 nM at Melanocortin receptor 4 [13]. In addition, the IC50 on Melanocortin receptor 4 [2] is 200 nM; at Melanocortin receptor 5 [3], 137 nM; on Melanocortin receptor 3 [12] (read-out: IC50) it was 1000 nM; in series [14] it was 4540 nM. Further, the Activity worked out at 80% on Melanocortin receptor 4 [4], 0% at Melanocortin receptor 5 [8], 100% in series [10] and 20% on Melanocortin receptor 3 [17]. The %max on Melanocortin receptor 4 [7] was found to be 80%; in series [9], 60%; at Melanocortin receptor 5 [15], 70%; on Melanocortin receptor 3 [16], 55%. Further, the Retention_time in series [11] came to 10.43 min.

As to `CC(=O)N[C@H]1Cc2ccccc2CN([C@H](Cc2ccccc2)C(=O)N[C@@H](CCCNC(=N)N)C(=O)N[C@@H](Cc2c[nH]c3ccccc23)C(N)=O)C1=O`, the EC50 is 59 nM at Melanocortin receptor 3 [1] (read-out: EC50), 1000 nM in [5] (read-out: EC50), “Not Active” on Melanocortin receptor 5 [6] (hek293) and 227 nM on Melanocortin receptor 4 [13]. Further, the IC50 on Melanocortin receptor 4 [2] was 220 nM; on Melanocortin receptor 5 [3] it was 37.3 nM; at Melanocortin receptor 3 [12] (read-out: IC50) it was greater than 2000 nM; in [14], 594 nM. Also, the Activity on Melanocortin receptor 4 [4] turned out to be 80%; on Melanocortin receptor 5 [8], 0%; in [10], 70%; at Melanocortin receptor 3 [17] it was 40%. Moreover, the %max at Melanocortin receptor 4 [7] was determined as 80%; in series [9] it was 80%; on Melanocortin receptor 5 [15] it was 75%; at Melanocortin receptor 3 [16], 59%. Further, the Retention_time in series [11] is listed as 13.35 min.

Regarding `CC(=O)N[C@H]1Cc2c([nH]c3ccccc23)CN([C@H](Cc2ccccc2)C(=O)N[C@@H](CCCNC(=N)N)C(=O)N[C@@H](Cc2c[nH]c3ccccc23)C(N)=O)C1=O`, the EC50 at Melanocortin receptor 3 [1] (read-out: EC50) was 52 nM; in series [5] (hek293) it was “Not Active”; at Melanocortin receptor 5 [6] (hek293), “Not Active”; on Melanocortin receptor 4 [13], 0.3 nM. Also, the IC50 was 447 nM at Melanocortin receptor 4 [2], 636 nM at Melanocortin receptor 5 [3], “Not Active” at Melanocortin receptor 3 [12] (hek293) and 1350 nM in series [14]. For the same compound, the Activity stood at 51% on Melanocortin receptor 4 [4], 0% at Melanocortin receptor 5 [8], 0% in series [10] and 20% at Melanocortin receptor 3 [17]. Besides, the %max is 50% at Melanocortin receptor 4 [7], 50% in series [9] and 80% on Melanocortin receptor 5 [15]. The compound also yielded a Retention_time in series [11] of 13.05 min.
